Measured values as given in PubChem BioAssay AID328 (DTP/NCI, 2004).
“And” between values parts separate entries of the source, which are not always exact repeats. Identical values can stand only once. Toxic doses and inconclusive results are not listed.

System: BDF1 mice, P388 leukemia ip, median survival T/C
Test: NCI In Vivo Anticancer Drug Screen. Data for tumor model P388 Leukemia (intraperitoneal) in B6D2F1 (BDF1) mice
Settings: endpoint: median survival time, higher = longer survival
Method in brief: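 Transplantable tumour in mice; compound vs vehicle dosing; survival scored; ratio of treated to control reported.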

[1] = dose: 50.0 mg/kg/injection, schedule: Q01DX009 (ip), vehicle: Klucel (hydroxypropylcellulose) (HPC)
[2] = dose: 50.0 mg/kg/injection, schedule: Q04DX003 (ip), vehicle: Klucel (hydroxypropylcellulose) (HPC)
[3] = dose: 100.0 mg/kg/injection, schedule: Q04DX003 (ip), vehicle: Klucel (hydroxypropylcellulose) (HPC)
[4] = dose: 200.0 mg/kg/injection, schedule: Q04DX003 (ip), vehicle: Klucel (hydroxypropylcellulose) (HPC)
[5] = dose: 25.0 mg/kg/injection, schedule: Q01DX009 (ip), vehicle: saline
[6] = dose: 25.0 mg/kg/injection, schedule: Q04DX003 (ip), vehicle: saline
[7] = dose: 50.0 mg/kg/injection, schedule: Q01DX009 (ip), vehicle: saline
[8] = dose: 100.0 mg/kg/injection, schedule: Q04DX003 (ip), vehicle: saline
[9] = dose: 100.0 mg/kg/injection, schedule: Q01DX009 (ip), vehicle: saline with Tween-80
[10] = dose: 100.0 mg/kg/injection, schedule: Q04DX003 (ip), vehicle: saline with Tween-80
[11] = dose: 200.0 mg/kg/injection, schedule: Q01DX009 (ip), vehicle: saline with Tween-80
[12] = dose: 200.0 mg/kg/injection, schedule: Q04DX003 (ip), vehicle: saline with Tween-80
[13] = dose: 400.0 mg/kg/injection, schedule: Q04DX003 (ip), vehicle: saline with Tween-80
[14] = dose: 400.0 mg/kg/injection, schedule: Q01DX009 (ip), vehicle: saline with Tween-80
[15] = dose: 200.0 mg/kg/injection, schedule: Q04DX003 (ip), vehicle: saline
[16] = dose: 400.0 mg/kg/injection, schedule: Q04DX003 (ip), vehicle: saline
[17] = dose: 50.0 mg/kg/injection, schedule: Q01DX009 (ip), vehicle: saline with Tween-80
[18] = dose: 100.0 mg/kg/injection, schedule: Q04DX002 (ip), vehicle: saline with Tween-80
[19] = dose: 200.0 mg/kg/injection, schedule: Q04DX002 (ip), vehicle: saline with Tween-80
[20] = dose: 400.0 mg/kg/injection, schedule: Q04DX002 (ip), vehicle: saline with Tween-80

CCC(C)(O)C(=O)OC1C(=O)OC2CC3C(C)CC(=O)C(O)C3(C)C3C4(O)OCC23C1C(C)C4O (stereo unspecified)
T/C (dose: 0.12 mg/kg/injection, schedule: Q01DX009 (ip), vehicle: saline with Tween-80): 121 % of control
T/C (dose: 0.25 mg/kg/injection, schedule: Q01DX009 (ip), vehicle: saline with Tween-80): 118 % of control
T/C (dose: 0.5 mg/kg/injection, schedule: Q01DX009 (ip), vehicle: saline with Tween-80): 116 % of control
T/C (dose: 1.0 mg/kg/injection, schedule: Q01DX009 (ip), vehicle: saline with Tween-80): 121 % of control
T/C (dose: 8.0 mg/kg/injection, schedule: Q01DX009 (ip), vehicle: saline with Tween-80): 122 % of control
T/C (dose: 16.0 mg/kg/injection, schedule: Q01DX009 (ip), vehicle: saline with Tween-80): 152 % of control

CNC(=O)OCc1c(COC(=O)NC)c(-c2ccc(Cl)cc2)n2c1CCC2
T/C [1]: 96 % of control

COC(=O)/C(=N\NS(=O)(=O)c1ccc(C)cc1)c1ccccc1
T/C (dose: 25.0 mg/kg/injection, schedule: Q04DX003 (ip), vehicle: Klucel (hydroxypropylcellulose) (HPC)): 98 % of control
T/C [2]: 100 % of control
T/C [3]: 94 % of control
T/C [4]: 93 % of control

CCN(CC)CCOC(=O)c1ccccc1N(c1ccccc1)c1ccccc1
T/C (dose: 62.5 mg/kg/injection, schedule: Q01DX009 (ip), vehicle: Klucel (hydroxypropylcellulose) (HPC)): 118 % of control
T/C (dose: 125.0 mg/kg/injection, schedule: Q01DX009 (ip), vehicle: Klucel (hydroxypropylcellulose) (HPC)): 118 % of control

O=C(O)c1ccc(CCCC2CCCC2)cc1
T/C [3]: 109 % of control
T/C [4]: 100 % of control

CCN1CC=CCC1
T/C [5]: 95 % of control
T/C [6]: 95 % of control and 104 % of control and 118 % of control
T/C (dose: 35.0 mg/kg/injection, schedule: Q04DX003 (ip), vehicle: saline): 109 % of control
T/C [7]: 100 % of control
T/C (dose: 75.0 mg/kg/injection, schedule: Q04DX003 (ip), vehicle: saline): 86 % of control
T/C (dose: 100.0 mg/kg/injection, schedule: Q01DX009 (ip), vehicle: saline): 116 % of control
T/C [8]: 109 % of control

Cc1ccc2c(c1)=N/C(=N/c1[nH]c(O)c3ccccc13)N=2
T/C (dose: 6.25 mg/kg/injection, schedule: Q01DX009 (ip), vehicle: saline with Tween-80): 108 % of control
T/C (dose: 12.5 mg/kg/injection, schedule: Q01DX009 (ip), vehicle: saline with Tween-80): 99 % of control
T/C (dose: 25.0 mg/kg/injection, schedule: Q01DX009 (ip), vehicle: saline with Tween-80): 108 % of control

Cc1cc(N(CCCl)CCCl)ccc1C=Nc1cccnc1
T/C [1]: 100 % of control and 113 % of control
T/C [2]: 100 % of control
T/C (dose: 100.0 mg/kg/injection, schedule: Q01DX009 (ip), vehicle: Klucel (hydroxypropylcellulose) (HPC)): 152 % of control
T/C [3]: 95 % of control
T/C (dose: 200.0 mg/kg/injection, schedule: Q01DX009 (ip), vehicle: Klucel (hydroxypropylcellulose) (HPC)): 150 % of control and 156 % of control
T/C [4]: 120 % of control
T/C (dose: 400.0 mg/kg/injection, schedule: Q01DX009 (ip), vehicle: Klucel (hydroxypropylcellulose) (HPC)): 169 % of control and 190 % of control
T/C (dose: 400.0 mg/kg/injection, schedule: Q04DX003 (ip), vehicle: Klucel (hydroxypropylcellulose) (HPC)): 120 % of control

CN(C)CCNc1cc(O)c2c(c1O)C(=O)c1ccccc1C2=O
T/C (dose: 50.0 mg/kg/injection, schedule: Q01DX005 (ip), vehicle: saline with Tween-80): 113 % of control
T/C (dose: 100.0 mg/kg/injection, schedule: Q01DX005 (ip), vehicle: saline with Tween-80): 103 % of control
T/C (dose: 200.0 mg/kg/injection, schedule: Q01DX005 (ip), vehicle: saline with Tween-80): 113 % of control

COC(=O)c1ccc(OCCOc2ccc(C(C)(C)CC(C)(C)C)cc2)c([N+](=O)[O-])c1
T/C (dose: 100.0 mg/kg/injection, schedule: Q04DX003 (ip), vehicle: saline sonified): 100 % of control
T/C (dose: 200.0 mg/kg/injection, schedule: Q04DX003 (ip), vehicle: saline sonified): 86 % of control
T/C (dose: 400.0 mg/kg/injection, schedule: Q04DX003 (ip), vehicle: saline sonified): 86 % of control

C[C@@H]1CN(C(=O)CCOS(C)(=O)=O)[C@@H](C)CN1C(=O)CCOS(C)(=O)=O
T/C (dose: 50.0 mg/kg/injection, schedule: Q04DX003 (ip), vehicle: saline with Tween-80): 166 % of control
T/C [9]: 272 % of control
T/C [10]: 208 % of control
T/C [11]: 104 % of control
T/C [12]: 172 % of control
T/C (dose: 264.0 mg/kg/injection, schedule: Q04DX003 (ip), vehicle: saline with Tween-80): 233 % of control
T/C [13]: 250 % of control and 272 % of control

Cc1ccc(C(C#N)Nc2ccccc2)cc1 (stereo unspecified)
T/C [9]: 100 % of control
T/C [10]: 100 % of control
T/C [11]: 115 % of control
T/C [12]: 100 % of control
T/C [14]: 100 % of control
T/C [13]: 104 % of control

OC1C=CC2C3C=CC(C3)C12 (stereo unspecified)
T/C [8]: 96 % of control
T/C [15]: 92 % of control
T/C [16]: 103 % of control

Cc1ccc(-n2c(O)c(C=N)c(=O)[nH]c2=O)cc1
T/C [17]: 86 % of control
T/C [9]: 86 % of control
T/C [11]: 113 % of control

CCCCCCC(=O)/C=C/c1cccc(OC)c1
T/C [17]: 90 % of control
T/C [9]: 105 % of control
T/C [11]: 105 % of control

CC(C)(O)c1ccccc1S(=O)(=O)c1ccccc1C(C)(C)O
T/C [18]: 94 % of control
T/C [19]: 93 % of control
T/C [20]: 89 % of control

CCOC(=O)Cn1nc(-c2ccc([N+](=O)[O-])o2)sc1=O
T/C [17]: 110 % of control
T/C [9]: 94 % of control
T/C [11]: 117 % of control

CC(C)C(Br)C(=O)NCC(=O)NCC(=O)O (stereo unspecified)
T/C [10]: 104 % of control
T/C [12]: 109 % of control
T/C [13]: 100 % of control

CCCCNC(=O)Nc1ccc(N(CC)CC)cc1
T/C [10]: 100 % of control
T/C [12]: 100 % of control
T/C [13]: 90 % of control

CC(CS(=O)(=O)O)N1CCN(CCO)CC1 (stereo unspecified)
T/C [8]: 95 % of control
T/C [15]: 100 % of control
T/C [16]: 100 % of control

CC(=O)N1C(=O)NC(=O)C1(C)c1cccs1 (stereo unspecified)
T/C [17]: 109 % of control
T/C [9]: 111 % of control
T/C [10]: 100 % of control
T/C [11]: 109 % of control
T/C [12]: 90 % of control
T/C [13]: 90 % of control

CCN(CC)CC(O)CNC(=O)c1c2nc3c(C(=O)NCC(O)CN(CC)CC)ccc(C)c3oc-2c(C)c(=O)c1N (stereo unspecified)
T/C (dose: 50.0 mg/kg/injection, schedule: Q04DX002 (ip), vehicle: saline with Tween-80): 110 % of control
T/C [18]: 106 % of control and 120 % of control

CC(=O)OCC(=O)[C@@]1(O)CC[C@H]2[C@@H]3C=C(C)C4=CC(=O)CC[C@]4(C)[C@H]3[C@@H](O)C[C@@]21C
T/C [9]: 108 % of control
T/C [10]: 95 % of control
T/C [11]: 91 % of control
T/C [12]: 95 % of control
T/C [14]: 108 % of control
T/C [13]: 95 % of control

COC(=O)C1C2CC[N+]3(CCCCC13)O2 (stereo unspecified)
T/C (dose: 3.13 mg/kg/injection, schedule: Q01DX009 (ip), vehicle: saline): 100 % of control
T/C (dose: 6.25 mg/kg/injection, schedule: Q01DX009 (ip), vehicle: saline): 100 % of control
T/C (dose: 12.5 mg/kg/injection, schedule: Q01DX009 (ip), vehicle: saline): 93 % of control and 109 % of control
T/C [7]: 105 % of control

CCN(CC)CCCC(C)Nc1c2ccc(Cl)cc2nc2cc(Cl)ccc12 (stereo unspecified)
T/C (dose: 12.5 mg/kg/injection, schedule: Q01DX009 (ip), vehicle: Klucel (hydroxypropylcellulose) (HPC)): 120 % of control

CN(C)CCNC(=O)Cc1cc(O)c2c(c1O)C(=O)c1ccccc1C2=O
T/C (dose: 50.0 mg/kg/injection, schedule: Q01DX005 (ip), vehicle: saline): 105 % of control
T/C (dose: 100.0 mg/kg/injection, schedule: Q01DX005 (ip), vehicle: saline): 118 % of control

CCCNC(=O)Nc1cccc(C(F)(F)F)c1
T/C [10]: 104 % of control
T/C [12]: 109 % of control
T/C [13]: 100 % of control

FC(F)(F)c1ccc(C=Nc2ccc(Oc3ccccc3)cc2)cc1
T/C [17]: 98 % of control
T/C [9]: 100 % of control
T/C [11]: 91 % of control

COc1cc(/C=N/NC(=O)C[n+]2ccccc2)cc(OC)c1
T/C [5]: 104 % of control
T/C [6]: 109 % of control
T/C [7]: 100 % of control
T/C (dose: 50.0 mg/kg/injection, schedule: Q04DX003 (ip), vehicle: saline): 104 % of control
T/C [8]: 86 % of control

CN(c1ccccc1)c1nc(=O)c2cc3ccc(=O)oc3cc2o1
T/C [18]: 99 % of control
T/C [19]: 109 % of control
T/C [20]: 100 % of control
